Source: patent US20250011311A1, “AMIDO HETEROAROMATIC COMPOUNDS” (AstraZeneca AB, priority 2022, published 2025)

Assays:
[1] = molecular target: recombinant 17bHSD13 (N2-K300) (Homo sapiens (Human), UniProt Q7Z5P4); assay: In Vitro 17bHSD13 Enzyme Assay; format: biochemical; details: 80 nM 17bHSD13, 0.5 mM NAD, 20 μM Estradiol, 2.5 h; estradiol to estrone by LC-MS/MS
Experimental: In Vitro 17bHSD13 Enzyme Assay
The enzyme reaction was initiated by addition, using CERTUS-FLEX dispenser (GYGER), of 20 μl of substrate solution containing NAD (SIGMA, N1511) and Estradiol (SIGMA, E8875). […] Final assay conditions were 80 nM of 17bHSD13, 0.5 mM of NAD, 20 μM Estradiol and various concentrations of compound in buffer (5 mM EDTA (TEKNOVA E0306), 0.01% DDM (AFFYMETRIX D310) in 50 mM Tris-Cl, pH 7.4).
(§1) SCIEX LC-MS/MS system: Sample was injected with CTC analytical injector, SHIMATZU LC pumps LC20 and analyzed on the SCIEX API 5000 LCMSMS system with the following settings. […] The mobile phases consist of A (water with 0.2% formic acid) and B (acetonitrile with 0.2% formic acid). The LC gradient profile is as follows: 50% B during 0 to 0.5 min, a linear increase to 100% B during 0.5 to 1 min, hold at 100% B during 1 to 1.6 min then back to 50% B from 1.6 to 2 min. […] Detection was performed on a API 5000 LC/MS/MS system with a triple quadrupole mass spectrometer, a TURBO V ion source, in multiple reaction monitoring (MRM) mode at positive polarity with APCI probe. […] The dwell times were 100 ms for each transition and a depolarization and collision energy of 100 and 40, respectively. Data from MS signals was using area under curve (AUC). Ratio=Estrone/(Estrone+Estradiol)
(§2) […] […] was used for curve fitting and calculation of IC50 values.
(§3) Compound effect was calculated with the formula below;
(§4) where X represents the effect in the presence of test compound, min is DMSO and max is the maximum inhibition of enzyme using a known inhibitor as control.

[2] = molecular target: over expressed HSD17β13 in HEK293S cells (Homo sapiens (Human), UniProt Q7Z5P4); assay: In Vitro 17bHSD13 Cell Assay; format: cell-based; details: HEK293S cells over expressing HSD17β13; estradiol to estrone conversion, 18 h, LC-MS/MS; read-out: 17bHSD1713 Cell assay IC50
Sequence of over expressed HSD17β13 in HEK293S cells (Q7Z5P4 20-300): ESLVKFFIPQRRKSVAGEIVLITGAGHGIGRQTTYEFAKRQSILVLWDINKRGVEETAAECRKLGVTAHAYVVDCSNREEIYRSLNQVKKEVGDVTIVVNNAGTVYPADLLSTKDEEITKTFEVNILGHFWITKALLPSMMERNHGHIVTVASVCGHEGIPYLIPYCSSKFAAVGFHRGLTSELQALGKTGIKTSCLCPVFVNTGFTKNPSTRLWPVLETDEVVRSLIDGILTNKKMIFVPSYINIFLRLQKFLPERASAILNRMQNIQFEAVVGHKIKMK
Experimental: In Vitro 17bHSD13 Cell Assay
Inhibition of 17bHSD13 was measured in a cell-based assay with over expressed HSD17β13 in HEK293S cells, measuring estradiol to estrone conversion by LCMS/MS.
Samples were analyzed using LC-MS/MS.
as §1, with “analysed” for “analyzed”
as §2, §3, §4

[3] = molecular target: recombinant 17bHSD4 (M1-N311) (Homo sapiens (Human), UniProt P51659); assay: In Vitro 17bHSD4 Enzyme Assay; format: biochemical; details: 40 nM 17bHSD4, 0.125 mM NAD, 15 μM Estradiol, 1.5 h; NADH fluorescence; read-out: 17HSD17b4 Enzyme assay IC50
Sequence of recombinant 17bHSD4 (M1-N311) (P51659 1-311): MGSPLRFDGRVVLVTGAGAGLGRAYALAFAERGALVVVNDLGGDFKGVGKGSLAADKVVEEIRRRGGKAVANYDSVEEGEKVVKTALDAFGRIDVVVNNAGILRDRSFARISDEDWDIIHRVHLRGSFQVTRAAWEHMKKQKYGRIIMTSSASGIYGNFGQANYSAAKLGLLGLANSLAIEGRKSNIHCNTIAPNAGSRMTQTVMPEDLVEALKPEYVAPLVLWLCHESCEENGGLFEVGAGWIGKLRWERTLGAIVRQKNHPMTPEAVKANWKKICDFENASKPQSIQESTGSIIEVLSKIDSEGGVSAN
Experimental: In Vitro 17bHSD4 Enzyme Assay
10 concentration of compounds (0.2 μl) in DMSO was added to GREINER FLUOTRAC 200 384 well plate (781076) using ECHO dispensing (BECKMAN COULTER). 80 nl of 10 mM Estradiol (SIGMA, E8875) was added using Echo dispensing. The enzyme reaction was initiated by addition, using MULTIDROP COMBI dispensing (THERMO FISHER), of 40 μl of a mix containing recombinant 17bHSD4 (M1-N311) and NAD. Final assay conditions were 40 nM of 17bHSD4, 0.125 mM of NAD, 15 μM Estradiol and various concentrations of compound in buffer (5 mM EDTA (TEKNOVA E0306), 0.01% DDM (AFFYMETRIX D310) in 50 mM Tris-Cl, pH 7.4). After each addition plates were centrifuged for 1 min at 150×g (EPPENDORF, 5810R, A-4-81). NADH formation was measured by fluorescence intensity (FI) (Ex360/Em460) at time zero (to) and at 1.5 h (t1) in a PHERASTAR FSX (BMG LABTECH). FI for each sample was calculated as FI at t1 minus FI at t0.
as §2, §3, §4

[4] = molecular target: over expressed HSD17β9 in HEK293S cells (Homo sapiens (Human), UniProt Q92781); assay: In Vitro 17bHSD9 Cell Assay; format: cell-based; details: HEK293S cells over expressing HSD17β9; retinol to retinal conversion, 18 h, LC-MS/MS; read-out: 17bHSD9 Cell assay IC50
Sequence of over expressed HSD17β9 in HEK293S cells (Q92781 whole entry): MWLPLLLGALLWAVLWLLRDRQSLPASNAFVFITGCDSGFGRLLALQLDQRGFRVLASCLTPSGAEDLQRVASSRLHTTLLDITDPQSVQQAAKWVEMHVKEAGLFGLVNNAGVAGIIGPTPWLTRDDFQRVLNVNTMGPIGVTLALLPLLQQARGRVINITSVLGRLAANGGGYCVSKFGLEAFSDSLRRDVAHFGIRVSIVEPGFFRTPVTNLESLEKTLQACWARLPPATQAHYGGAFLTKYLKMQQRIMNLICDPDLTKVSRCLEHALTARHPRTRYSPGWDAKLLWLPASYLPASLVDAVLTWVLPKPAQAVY
Experimental: In Vitro 17bHSD9 Cell Assay
Inhibition of 17bHSD9 was measured in a cell-based assay with over expressed HSD17β9 in HEK293S cells, measuring retinol to retinal conversion by LCMS/MS.
Cells were plated in 384 well plates (GREINER CELL culture plate 384w black/clear Poly-D-Lysine) at 10 K c/w in 30 μl of culture media (DMEM with GLUTAMAX plus 10% FBS). […] After 18 h of cell culturing for 20 μl of media was transferred using BRAVO dispensing robot (AGILENT) to a GREINER PP 384 well plate (781280) and 40 μl of 50% acetonitrile was added. Samples were analyzed using LC-MS/MS.
SCIEX LC-MS/MS system: Sample was injected with CTC analytical injector, SHIMATZU LC pumps LC20 and analysed on the SCIEX API 5000 LCMSMS system with the following settings. Samples were chromatographed on a WATERS, symmetry, C8, 3.5 μm, 2.1×50 mm) column at constant flow rate of 0.5 mL/min. The mobile phases consists of A (water with 0.2% formic acid) and B (acetonitrile with 0.2% formic acid). The LC gradient profile is as follows: 50% B during 0 to 0.1 min, a linear increase to 100% B during 0.1 to 0.8 min, hold at 100% B during 0.8 to 1.5 min then back to 50% B from 1.5 to 1.6 min and hold during run time. The run time was 2 min with retention times of approximately 1.54 and 1.62 min for Retinol and Retinal, respectively. Detection was performed on a API 5000 LC/MS/MS system with a triple quadrupole mass spectrometer, a TURBO V ion source, in multiple reaction monitoring (MRM) mode at positive polarity with ESI probe. The MRM pairs were m/z 269.3 to m/z 93.0 and m/z 285.2 to 161.0. for Retinol and Retinal, respectively. The dwell times were 100 ms for each transition and a depolarization and collision energy of 50 and 25, respectively. Data from MS signals was using area under curve (AUC). Ratio=Retinal/(Retinal+Retinol).
as §2, §3, §4

Sequence of recombinant 17bHSD13 (N2-K300) (Q7Z5P4 2-300): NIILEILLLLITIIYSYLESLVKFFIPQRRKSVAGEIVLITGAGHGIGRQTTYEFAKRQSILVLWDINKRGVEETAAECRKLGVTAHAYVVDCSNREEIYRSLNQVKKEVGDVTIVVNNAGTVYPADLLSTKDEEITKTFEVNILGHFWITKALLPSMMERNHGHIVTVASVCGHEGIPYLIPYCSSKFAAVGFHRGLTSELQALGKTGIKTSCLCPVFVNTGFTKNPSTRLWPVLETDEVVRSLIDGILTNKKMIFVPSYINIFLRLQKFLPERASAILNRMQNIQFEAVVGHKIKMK

| Structure (SMILES) | IC50 [1] [nM] | IC50 [2] [nM] | IC50 [3] [nM] | IC50 [4] [nM] |
| --- | --- | --- | --- | --- |
| O=C(c1nnc(-c2ccc(F)c(O)c2)o1)N1CC[C@H](c2ccccc2)C1 [Example 1, (R)-(5-(4-Fluoro-3-hydroxyphenyl)-1,3,4-oxadiazol-2-yl)(3-phenylpyrrolidin-1-yl)methanone] | 308 | 750 | 32400 | – |
| O=C(c1cc(-c2ccc(F)c(O)c2)no1)N1CCC(c2ccccc2)C1 (stereo not drawn) [Example 6, (3-(4-Fluoro-3-hydroxyphenyl)isoxazol-5-yl)(3-phenylpyrrolidin-1-yl)methanone] | 41 | 980 | 89100 | > 50000 |
| O=C(c1cc(-c2cc(F)c(F)c(O)c2F)on1)N1CC[C@H](c2ccc(Cl)cc2)C1 [Example 8, (R)-(3-(4-Chlorophenyl)pyrrolidin-1-yl)(5-(2,4,5-trifluoro-3-hydroxyphenyl)isoxazol-3-yl)methanone] | 47 | 610 | 6700 | 25000 |
| N#Cc1c(C(=O)N2CCC(c3ccccc3)C2)noc1-c1ccc(F)c(O)c1 (stereo not drawn) [Example 13, 5-(4-Fluoro-3-hydroxyphenyl)-3-(3-phenylpyrrolidine-1-carbonyl)isoxazole-4-carbonitrile] | 40 | 460 | 15600 | – |
| N#Cc1c(C(=O)N2CCN(c3nc4ccccc4o3)CC2)noc1-c1cc(F)c(F)c(O)c1F [Example 23, 3-(4-(Benzo[d]oxazol-2-yl)piperazine-1-carbonyl)-5-(2,4,5-trifluoro-3-hydroxyphenyl)isoxazole-4-carbonitrile] | 141 | 930 | 33900 | > 50000 |
| COc1ccc(OC2CCN(C(=O)c3noc(-c4cc(F)c(F)c(O)c4F)c3C#N)CC2)nc1 [Example 25, 3-(4-((5-Methoxypyridin-2-yl)oxy)piperidine-1-carbonyl)-5-(2,4,5-trifluoro-3-hydroxyphenyl)isoxazole-4-carbonitrile] | 288 | 820 | 24800 | 22700 |
| CC[C@H]1CN(C(=O)c2noc(-c3cc(F)c(F)c(O)c3F)n2)CC(=O)N1 [Example 34, (S)-6-Ethyl-4-(5-(2,4,5-trifluoro-3-hydroxyphenyl)-1,2,4-oxadiazole-3-carbonyl)piperazin-2-one] | 581 | > 50000 | > 50000 | > 50000 |
| CC(C)C1COCCN1C(=O)c1noc(-c2cc(F)c(F)c(O)c2F)n1 (stereo not drawn) [Example 35, (3-Isopropylmorpholino)(5-(2,4,5-trifluoro-3-hydroxyphenyl)-1,2,4-oxadiazol-3-yl)methanone] | 640 | 2220 | 42200 | 4200 |
| C[C@@H]1COC[C@H](C)N1C(=O)c1noc(-c2cc(F)c(F)c(O)c2F)n1 [Example 36, ((3R,5S)-3,5-Dimethylmorpholino)(5-(2,4,5-trifluoro-3-hydroxyphenyl)-1,2,4-oxadiazol-3-yl)methanone] | 1030 | 1320 | > 50000 | > 50000 |
| O=C(c1noc(-c2cc(F)c(F)c(O)c2F)n1)N1CCOCC1 [Example 39, Morpholino(5-(2,4,5-trifluoro-3-hydroxyphenyl)-1,2,4-oxadiazol-3-yl)methanone] | 1740 | 1480 | > 50000 | > 50000 |
| O=C(c1noc(-c2cc(F)c(F)c(O)c2F)n1)N1CCSCC1 [Example 40, Thiomorpholino(5-(2,4,5-trifluoro-3-hydroxyphenyl)-1,2,4-oxadiazol-3-yl)methanone] | 700 | 1460 | > 50000 | > 50000 |
| N#Cc1cccc(C2CN(C(=O)c3noc(-c4cc(F)c(F)c(O)c4F)n3)CCN2)c1 (stereo not drawn) [Example 42, 3-(4-(5-(2,4,5-Trifluoro-3-hydroxyphenyl)-1,2,4-oxadiazole-3-carbonyl)piperazin-2-yl)benzonitrile] | 908 | 10000 | > 50000 | > 50000 |
| O=C(c1noc(-c2cc(F)c(F)c(O)c2F)n1)N1CCCCC1 [Example 44, Piperidin-1-yl(5-(2,4,5-trifluoro-3-hydroxyphenyl)-1,2,4-oxadiazol-3-yl)methanone] | 432 | 190 | 38400 | 11200 |
| O=C(c1noc(-c2cc(F)c(F)c(O)c2F)n1)N1CCOC2(CCCC2)C1 [Example 45, (6-Oxa-9-azaspiro[4.5]decan-9-yl)(5-(2,4,5-trifluoro-3-hydroxyphenyl)-1,2,4-oxadiazol-3-yl)methanone] | 466 | 510 | > 50000 | 4100 |
| O=C(c1cc(-c2cc(F)c(F)c(O)c2F)on1)N1CC[C@H](c2ccccc2)C1 [Example 104, (R)-(3-Phenylpyrrolidin-1-yl)(5-(2,4,5-trifluoro-3-hydroxyphenyl)isoxazol-3-yl)methanone] | 57 | 540 | 9600 | – |
